Reference: patent US10166218B2, “3-(1H-indol-2-yl)-1H-pyrazolo[3,4-C]pyridines and therapeutic uses thereof” (Samumed, LLC, priority 2015, dated 2019)

Assays:
Format in all cases: cell-based
[1] = test system: IL-6 (THP-1 cells); assay: Inhibition of IL-6 in LPS-stimulated THP-1 human monocyte cells (HTRF); settings: for EC50: inhibition of IL-6 in LPS-stimulated THP-1 cells, HTRF, 10-point dose-response starting from 10 μM; for inhibition at 10 µM: IL-6 assay in LPS-stimulated THP-1 cells, given only where EC50 >10 μM, meaning not given (top concentration 10 μM), read-out: percentage given in parentheses after EC50 >10
Outline: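 Readout is the 665/620 nm HTRF ratio for secreted IL-6, normalized to DMSO wells, with EC50 from a variable-slope four-parameter fit, or % inhibition at 10 μM when above 10 μM. Cells (1% FBS, 24 h beforehand) got compound for 2 h, then LPS 500 ng/mL for 22 h at 37° C; top dose 10 μM, 0.1% DMSO.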

[2] = test system: Wnt activity (Sp5-Luc reporter, TCF/LEF binding sites) in SW480 colon carcinoma cells; assay: Screening assay for Wnt activity: Sp5-Luc reporter gene assay in stably transduced SW480 cells; settings: Homo sapiens, overnight incubation
Outline: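 Luminescence (BrightGlo) was normalised to DMSO-only wells and fitted with a four-parameter variable-slope model for EC50; beyond 10 μM, % inhibition at 10 μM is given. Stable Sp5-Luc SW480 reporter cells, 4,000/well in 1% FBS, were exposed overnight at 37 °C to compounds, top 10 μM, 1:3 dilutions, 0.1% DMSO.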

[3] = test system: SW480 colon cancer cells; assay: Cell viability assay (CellTiter-Blue) in SW480 colon cancer cells; settings: Homo sapiens, 96 h, four days; for EC50: CellTiter-Blue; for inhibition at 10 µM: read-out: percent inhibition at 10 μM (given for EC50 of >10 μM)
Outline: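 Four-day viability readout in SW480 cells: compound at 0.0045–10 μM (1:3 series), DMSO controls in eight replicates, CellTiter-Blue fluorescence after ~3 h. Values are regression-derived EC50s, or percent inhibition at 10 μM when EC50 exceeds 10 μM.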

Compound | EC50 [1] [nM] | EC50 [2] [nM] | EC50 [3] [nM] | inhibition at 10 µM [1] [%] | inhibition at 10 µM [3] [%]
CN(C)CCNc1cc(F)cc(-c2cccc3[nH]c(-c4n[nH]c5cnc(-c6cncc(CN(C)C)c6)cc45)cc23)c1 [Compound 461, N^1-(3-(2-(5-(5-((Dimethylamino)methyl)pyridin-3-yl)-1H-pyrazolo[3,4-c]pyridin-3-yl)-1H-indol-4-yl)-5-fluorophenyl)-N^2,N^2-dimethylethane-1,2-diamine] | 657 | 1310 | 964 | – | –
Cc1ccncc1-c1cc2c(-c3cc4c(-c5ccccn5)cccc4[nH]3)n[nH]c2cn1 [Compound 145, 5-(4-Methylpyridin-3-yl)-3-(4-(pyridin-2-yl)-1H-indol-2-yl)-1H-pyrazolo [3,4-c]pyridine] | 2830 | 567 | 814 | – | –
CCCCC(=O)Nc1cncc(-c2cc3c(-c4cc5c(-c6ccccn6)cccc5[nH]4)n[nH]c3cn2)c1 [Compound 159, N-(5-(3-(4-(Pyridin-2-yl)-1H-indol-2-yl)-1H-pyrazolo[3,4-c]pyridin-5-yl)pyridin-3-yl)pentanamide] | 1560 | 3480 | 2810 | – | –
O=C(Nc1cncc(-c2cc3c(-c4cc5c(N6CCCCC6)cccc5[nH]4)n[nH]c3cn2)c1)C1CC1 [Compound 188, N-(5-(3-(4-(Piperidin-1-yl)-1H-indol-2-yl)-1H-pyrazolo[3,4-c]pyridin-5-yl)pyridin-3-yl)cyclopropanecarboxamide] | 4960 | 2420 | > 10000 | – | 25.3
Nc1cncc(-c2cc3c(-c4cc5ncccc5[nH]4)n[nH]c3cn2)c1 [Compound 507, 5-(3-(1H-Pyrrolo[3,2-b]pyridin-2-yl)-1H-pyrazolo[3,4-c]pyridin-5-yl) pyridin-3-amine] | 404 | 248 | 1230 | – | –
Fc1ccccc1-c1cccc2[nH]c(-c3n[nH]c4cnc(-c5cn[nH]c5)cc34)cc12 [Compound 567, 3-(4-(2-Fluorophenyl)-1H-indol-2-yl)-5-(1H-pyrazol-4-yl)-1H-pyrazolo[3,4-c]pyridine] | 438 | 203 | > 10000 | – | 46.1
CN1CCN(c2cccc3[nH]c(-c4n[nH]c5cnc(-c6cncc(NC(=O)C7CCC7)c6)cc45)cc23)CC1 [Compound 245] | 967 | 1970 | > 10000 | – | 64.6
CS(=O)(=O)NCc1cc(F)cc(-c2cccc3[nH]c(-c4n[nH]c5cnc(-c6cncc(NC(=O)c7ccccc7)c6)cc45)cc23)c1 [Compound 487, N-(5-(3-(4-(3-Fluoro-5-(methylsulfonamidomethyl)phenyl)-1H-indol-2-yl)-1H-pyrazolo[3,4-c]pyridin-5-yl)pyridin-3-yl)benzamide] | > 10000 | 800 | > 10000 | 28.8 | 45.4
O=C(Nc1cncc(-c2cc3c(-c4cc5ccccc5[nH]4)n[nH]c3cn2)c1)C1CCCCC1 [Compound 275, N-(5-(3-(1H-Indol-2-yl)-1H-pyrazolo[3,4-c]pyridin-5-yl)pyridin-3-yl) cyclohexanecarboxamide] | 92 | 635 | > 10000 | – | 35.4
CC(C)(C)CC(=O)Nc1cncc(-c2cc3c(-c4cc5ccccc5[nH]4)n[nH]c3cn2)c1 [Compound 268, N-(5-(3-(1H-Indol-2-yl)-1H-pyrazolo[3,4-c]pyridin-5-yl)pyridin-3-yl)-3,3-dimethylbutanamide] | > 10000 | 615 | > 10000 | 25.1 | 4.5
O=C(Nc1cncc(-c2cc3c(-c4cc5c(-c6cccnc6)cccc5[nH]4)n[nH]c3cn2)c1)c1ccccc1 [Compound 95, N-(5-(3-(4-(Pyridin-3-yl)-1H-indol-2-yl)-1H-pyrazolo[3,4-c]pyridin-5-yl)pyridin-3-yl)benzamide] | 727 | 400 | 1400 | – | –
O=C(Cc1ccccc1)Nc1cncc(-c2cc3c(-c4cc5c(-c6ccc(F)cc6)cccc5[nH]4)n[nH]c3cn2)c1 [Compound 38, N-(5-(3-(4-(4-Fluorophenyl)-1H-indol-2-yl)-1H-pyrazolo[3,4-c]pyridin-5-yl)pyridin-3-yl)-2-phenylacetamide] | > 10000 | 4310 | 4320 | 29.4 | –

The next lines start with results.

EC50 [1] [nM] | EC50 [2] [nM] | EC50 [3] [nM] | Compound | inhibition at 10 µM [1] [%] | inhibition at 10 µM [3] [%]
232 | 407 | 1070 | CN(C)CCNc1cc(F)cc(-c2cccc3[nH]c(-c4n[nH]c5cnc(-c6cncc(O)c6)cc45)cc23)c1 [Compound 817, 5-(3-(4-(3-((2-(Dimethylamino)ethyl)amino)-5-fluorophenyl)-1H-indol-2-yl)-1H-pyrazolo[3,4-c]pyridin-5-yl)pyridin-3-ol] | – | –
> 10000 | 1230 | > 10000 | c1cc(-c2ccncc2)c2cc(-c3n[nH]c4cnc(-c5cncnc5)cc34)[nH]c2c1 [Compound 139, 3-(4-(Pyridin-4-yl)-1H-indol-2-yl)-5-(pyrimidin-5-yl)-1H-pyrazolo[3,4-c]pyridine] | 3 | 15.5
> 10000 | 590 | 6840 | Cc1ccncc1-c1cc2c(-c3cc4c(-c5cccc(F)c5)cccc4[nH]3)n[nH]c2cn1 [Compound 5, 3-(4-(3-Fluorophenyl)-1H-indol-2-yl)-5-(4-methylpyridin-3-yl)-1H-pyrazolo [3,4-c]pyridine] | 30.7 | –
251 | 401 | > 10000 | O=C(Nc1cncc(-c2cc3c(-c4cc5c(-c6ccncc6)cccc5[nH]4)n[nH]c3cn2)c1)C1CCC1 [Compound 133, N-(5-(3-(4-(Pyridin-4-yl)-1H-indol-2-yl)-1H-pyrazolo[3,4-c]pyridin-5-yl)pyridin-3-yl)cyclobutanecarboxamide] | – | 45.9
856 | 1260 | 1480 | CCNCc1cncc(-c2cc3c(-c4cc5c(-c6cc(F)cc(NCCN(C)C)c6)cccc5[nH]4)n[nH]c3cn2)c1 [Compound 454, N^1-(3-(2-(5-(5-((Ethylamino)methyl)pyridin-3-yl)-1H-pyrazolo[3,4-c]pyridin-3-yl)-1H-indol-4-yl)-5-fluorophenyl)-N^2,N^2-dimethylethane-1,2-diamine] | – | –
> 10000 | 1510 | > 10000 | O=C(Nc1cncc(-c2cc3c(-c4cc5c(-c6cccc(F)c6)cccc5[nH]4)n[nH]c3cn2)c1)C1CCC1 [Compound 21, N-(5-(3-(4-(3-Fluorophenyl)-1H-indol-2-yl)-1H-pyrazolo[3,4-c]pyridin-5-yl)pyridin-3-yl)cyclobutanecarboxamide] | 0 | 11.5
968 | 296 | 1300 | Nc1cncc(-c2cc3c(-c4cc5c(-c6ccccc6F)cccc5[nH]4)n[nH]c3cn2)c1 [Compound 59, 5-(3-(4-(2-Fluorophenyl)-1H-indol-2-yl)-1H-pyrazolo[3,4-c]pyridin-5-yl) pyridin-3-amine] | – | –
286 | 386 | 437 | CN(C)CCNc1cc(F)cc(-c2cccc3[nH]c(-c4n[nH]c5cnc(-c6cncc(NC(=O)C(C)(C)C)c6)cc45)cc23)c1 [Compound 456, N-(5-(3-(4-(3-((2-(Dimethylamino)ethyl)amino)-5-fluorophenyl)-1H-indol-2-yl)-1H-pyrazolo[3,4-c]pyridin-5-yl)pyridin-3-yl)pivalamide] | – | –
181 | 275 | 305 | CC(C)C(=O)Nc1cncc(-c2cc3c(-c4cc5c(-c6cccnc6)cccc5[nH]4)n[nH]c3cn2)c1 [Compound 93, N-(5-(3-(4-(Pyridin-3-yl)-1H-indol-2-yl)-1H-pyrazolo[3,4-c]pyridin-5-yl)pyridin-3-yl)isobutyramide] | – | –
91 | 448 | 659 | CN(C)CCNc1cc(F)cc(-c2cccc3[nH]c(-c4n[nH]c5cnc(-c6cncc(N)c6)cc45)cc23)c1 [Compound 451, N^1-(3-(2-(5-(5-Aminopyridin-3-yl)-1H-pyrazolo[3,4-c]pyridin-3-yl)-1H-indol-4-yl)-5-fluorophenyl)-N^2,N^2-dimethylethane-1,2-diamine] | – | –
> 10000 | 1830 | 6210 | FC1(F)CCN(Cc2cncc(-c3cc4c(-c5cc6c(N7CCCCC7)cccc6[nH]5)n[nH]c4cn3)c2)C1 [Compound 194, 5-(5-((3,3-Difluoropyrrolidin-1-yl)methyl)pyridin-3-yl)-3-(4-(piperidin-1-yl)-1H-indol-2-yl)-1H-pyrazolo[3,4-c]pyridine] | 0 | –
